In series [1] the test system is saccharase/isomaltase (SI) enzyme complex. The experiment in a line: Cleavability by small-intestine α-glucosidases, SI complex. Conditions: 2 hours, 37° C.
Method: The saccharase/isomaltase (SI) and glucoamylase/-maltase (GM) enzyme complexes were isolated from porcine small intestine by the method of H. Heymann (Dissertation, Hannover, 1991).
• triethanolamine (TRA) buffer, 0.1 M, pH 7.0 • saccharide, 1% strength solution in TRA buffer • maltose or sucrose, as control substances, 1% strength in TRA buffer • mucosa enzyme, dissolved in TRA buffer Reaction Mixture:
1.2 ml of the carbohydrate solution, at a controlled temperature of 37° C., were admixed with 0.7 U of the saccharase/isomaltose or glucoamylase/maltase enzyme complex, respectively, at t=0. Mixing was followed by incubation at 37° C. The reaction was stopped after 2 hours by heating at 95° C. for 15 minutes. The monosaccharides formed and also the test substances used were assayed by HPAEC.
The subject of series [2] is glucoamylase/maltase (GM) enzyme complex. Briefly: Cleavability by small-intestine α-glucosidases, GM complex. In kind it is in vitro ADME, porcine. Conditions: 2 hours, 37° C. As for the experimental part: Mixing was followed by incubation at 37° C.
Series [3] in a line: Stability in the stomach: rate of hydrolysis at pH 2.0. The class given is physicochemical. Conditions: pH 2.0 (0.01 M HCl), 37° C., 1% solution.
Method: The stability of a substance on passage through the stomach can be ascertained by determining the rate of hydrolysis at a pH of 2.0, using sucrose and 1-kestose as controls.
Samples were taken from the reaction mixture after 60, 120 and 180 minutes. They were analyzed by means of HPAEC techniques.
Report as hydrolysis rates in %

With `OC[C@H]1O[C@H](O[C@H]2[C@H](O)[C@@H](O)C(O)O[C@@H]2CO)[C@H](O)[C@@H](O)[C@@H]1O` (mixture of isomers) [Maltose, maltose], in series [1], the “hydrolysis by the SI enzyme complex” value is reported as “virtually complete hydrolysis”. In addition, in series [2], the “hydrolysis by the GM enzyme complex” value is “virtually complete hydrolysis”.
As for `OC[C@H]1O[C@@](CO)(OC[C@@]2(O[C@H]3O[C@H](CO)[C@@H](O)[C@H](O)[C@H]3O)O[C@H](CO)[C@@H](O)[C@@H]2O)[C@@H](O)[C@@H]1O` [1-Kestose, 1-kestose], the hydrolysis rate was 0% in series [3] (incubation time 0 min.), 11% in series [3] (incubation time 60 min.), 25% in series [3] (incubation time 120 min.) and 36% in series [3] (incubation time 180 min.).
With `OC[C@H]1O[C@@](CO)(O[C@H]2O[C@H](CO)[C@@H](O)[C@H](O)[C@H]2O)[C@@H](O)[C@@H]1O` [Sucrose, sucrose], the hydrolysis rate turned out to be 0% in series [3] (incubation time 0 min.), 2% in series [3] (incubation time 60 min.), 5% in series [3] (incubation time 120 min.) and 8% in series [3] (incubation time 180 min.). For the same compound, in series [1], the “hydrolysis by the SI enzyme complex” value is “virtually complete hydrolysis”.

Values taken from patent US20050222406A1, “Condensed palatinose in hydrogenated form” (priority 2002, published 2005).
